Laboratory results taken from BigSolDB 2.1.

Oc1ccc(OCc2ccccc2)cc1
solubility (mole fraction)
Conditions	283.15 K	288.15 K	293.15 K	298.15 K	303.15 K	308.15 K	313.15 K	318.15 K	323.15 K	328.15 K
in ethanol	0.0483	0.056	0.0644	0.0737	0.0846	0.0956	0.109	0.123	0.137	0.155
in ethylene glycol	0.0053	0.00664	0.00822	0.0101	0.0125	0.0149	0.018	0.0216	0.0257	0.0302
in isopropanol	0.0217	0.0261	0.0308	0.0365	0.0425	0.0503	0.0583	0.0671	0.0778	0.0896
in n-propanol	0.0381	0.0446	0.052	0.0605	0.0702	0.0804	0.0931	0.106	0.12	0.137
in water	3.57e-06	4.49e-06	5.64e-06	7.04e-06	8.71e-06	1.07e-05	1.3e-05	1.57e-05	1.91e-05	2.29e-05
